Starred links: 1 amine or outer side, 2 acyl side, 3 side chain; linkers in the order of their positions; H or OH if unused. Positions of bridges follow the written chain, without caps; N, C: chain ends. Non-standard residues stand in square brackets, D forms with d. Residues, ends and D or L forms follow the SMILES beside them. *: point of attachment. hPhe(3-Cl-4-CF3) = N[C@@H](CCc1ccc(C(F)(F)F)c(Cl)c1)C(=O)O; hPhe(3-F,4-CF3) = N[C@@H](CCc1ccc(C(F)(F)F)c(F)c1)C(=O)O; NMePhe(4-CF3) = CN[C@@H](Cc1ccc(C(F)(F)F)cc1)C(=O)O; X69 = O=C([C@@H]1C[C@H](n2ccnn2)CN1[*:1])[*:2]; NMePhe(4-Me) = CN[C@@H](Cc1ccc(C)cc1)C(=O)O; NMedβ3hAla = C[C@H](CC(=O)[*:2])N(C)[*:1]; NMeAla(cPent) = CN[C@@H](CC1CCCC1)C(=O)O; NMeGly(cPent) = CN[C@H](C(=O)O)C1CCCC1; Pro(4,4-F2) = O=C(O)[C@@H]1CC(F)(F)CN1; NMeCha = CN[C@@H](CC1CCCCC1)C(=O)O; cisHyp = O=C(O)[C@@H]1C[C@H](O)CN1; NMehLeu = CN[C@@H](CCC(C)C)C(=O)O; Hyp = O=C(O)[C@@H]1C[C@@H](O)CN1; NEtLeu = CCN[C@@H](CC(C)C)C(=O)O; NMeChg = CN[C@H](C(=O)O)C1CCCCC1; NMeI = CC[C@H](C)[C@H](NC)C(=O)O; NMeD = CN[C@@H](CC(=O)O)C(=O)O; Benzyl(4-Cl) = Clc1ccc(C*)cc1; NMeL = CN[C@@H](CC(C)C)C(=O)O; NMeV = CN[C@H](C(=O)O)C(C)C; Azetidin(1-yl) = C1CN(*)C1; NMeA = CN[C@@H](C)C(=O)O; Piperidide = C1CCN(*)CC1; Ac5c = NC1(C(=O)O)CCCC1; Aze = O=C(O)[C@@H]1CCN1; Sar = CNCC(=O)O
Test system: Human pancreatic cancer cell line AsPC-1
Experiment: Measurement of AsPC-1 cell growth inhibition (AsPC-1 CGI)
Format: cell-based
Details: 96 h
How it was run: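 AsPC-1 cells in 15% FBS RPMI-1640 were exposed to test compound for 96 hours at 37° C, with CellTiter-Glo as endpoint.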

SMILES | IC50 [nM]
CC[C@H](C)[C@@H]1NC(=O)[C@H](CCC(C)C)N(C)C(=O)C[C@@H](C(=O)N2CCCCC2)N(C)C(=O)[C@H](C(C)C)N(C)C(=O)C2(CCCC2)NC(=O)[C@@H]2CCCN2C(=O)[C@H](CCc2ccc(C(F)(F)F)c(Cl)c2)NC(=O)CN(C)C(=O)[C@H](CC2CCCCC2)N(C)C(=O)[C@@H]2CCN2C(=O)[C@H](C)N(C)C1=O [Compound 1833] ([NMehLeu]I[NMeA][Aze][NMeCha][Sar][hPhe(3-Cl-4-CF3)]P[Ac5c][NMeV][NMeD]-Piperidide; lactam N-11) | 100 to 500
CC[C@H](C)[C@@H]1NC(=O)[C@H](CC(C)C)N(C)C(=O)C[C@@H](C(=O)N2CCCCC2)N(C)C(=O)[C@H](C(C)C)N(C)C(=O)C2(CCCC2)NC(=O)[C@@H]2CCCN2C(=O)[C@H](CCc2ccc(C(F)(F)F)c(F)c2)NC(=O)CN(C)C(=O)[C@H](CC2CCCCC2)N(C)C(=O)[C@@H]2CCN2C(=O)CN(C)C1=O [Compound 599] ([NMeL]I[Sar][Aze][NMeCha][Sar][hPhe(3-F,4-CF3)]P[Ac5c][NMeV][NMeD]-Piperidide; lactam N-11) | 100 to 500
CC[C@H](C)[C@@H]1NC(=O)[C@H](CC(C)C)N(C)C(=O)C[C@@H](C(=O)N2CCCCC2)N(C)C(=O)[C@H](C(C)C)N(C)C(=O)C2(CCCC2)NC(=O)[C@@H]2C[C@H](n3ccnn3)CN2C(=O)[C@H](CCc2ccc(C(F)(F)F)c(Cl)c2)NC(=O)CN(C)C(=O)[C@H](CC2CCCC2)N(C)C(=O)CN(C)C(=O)CN(C)C1=O [Compound 2115, (3S,9S,18S,21S,25S,28S,34S,36S)-3-[2-[3-chloro-4-(trifluoromethyl)phenyl]ethyl]-9-(cyclopentylmethyl)-21-isobutyl-28-isopropyl-7,10,13,16,22,26,29-heptamethyl-18-[(1S)-1-methylpropyl]-25-(piperidine-1-carbonyl)-36-(triazol-1-yl)spiro[1,4,7,10,13,16,19,22,26,29,32-undecazabicyclo[32.3.0]heptatriacontane-31,1′-cyclopentane]-2,5,8,11,14,17,20,23,27,30,33-undecone] ([NMeL]I[Sar][Sar][NMeAla(cPent)][Sar][hPhe(3-Cl-4-CF3)][X69][Ac5c][NMeV][NMeD]-Piperidide; lactam N-11) | > 500
CC[C@H](C)[C@@H]1NC(=O)[C@H](CC(C)C)N(C)C(=O)C[C@@H](C)N(C)C(=O)[C@H](C2CCCCC2)N(C)C(=O)C2(CCCC2)NC(=O)[C@@H]2CC(F)(F)CN2C(=O)[C@H](CCc2ccc(C(F)(F)F)c(Cl)c2)NC(=O)CN(C)C(=O)[C@H](Cc2ccc(C(F)(F)F)cc2)N(C)C(=O)[C@@H]2CCN2C(=O)[C@H](C)N(C)C1=O [Compound 319] (cyclo([Ac5c][NMeChg][NMedβ3hAla][NMeL]I[NMeA][Aze][NMePhe(4-CF3)][Sar][hPhe(3-Cl-4-CF3)][Pro(4,4-F2)])) | 100 to 500
CCO[C@@H]1C[C@H]2C(=O)NC3(CCCC3)C(=O)N(C)[C@@H](CC(C)C)C(=O)N(C)[C@H](C)CC(=O)N(C)[C@@H](CC(C)C)C(=O)N[C@@H]([C@@H](C)CC)C(=O)N(C)CC(=O)N(C)CC(=O)N(C)[C@@H](CC3CCCCC3)C(=O)N(C)CC(=O)N[C@@H](CCc3ccc(C(F)(F)F)c(Cl)c3)C(=O)N2C1 [Compound 1851] (cyclo([Ac5c][NMeL][NMedβ3hAla][NMeL]I[Sar][Sar][NMeCha][Sar][hPhe(3-Cl-4-CF3)][Hyp](Et))) | 20 to 50
CCO[C@@H]1C[C@H]2C(=O)NC3(CCCC3)C(=O)N(C)[C@@H](C3CCCCC3)C(=O)N(C)[C@H](C)CC(=O)N(C)[C@@H](CC(C)C)C(=O)N[C@@H]([C@@H](C)CC)C(=O)N(C)[C@@H](C)C(=O)N3CC[C@H]3C(=O)N(C)[C@@H](Cc3ccc(C(F)(F)F)cc3)C(=O)N(C)CC(=O)N[C@@H](CCc3ccc(C(F)(F)F)c(Cl)c3)C(=O)N2C1 [Compound 652] (cyclo([Ac5c][NMeChg][NMedβ3hAla][NMeL]I[NMeA][Aze][NMePhe(4-CF3)][Sar][hPhe(3-Cl-4-CF3)][Hyp](Et))) | 50 to 100
CC[C@H](C)[C@@H]1NC(=O)[C@H](CC(C)C)N(C)C(=O)C[C@@H](C(=O)N2CCCCC2)N(C)C(=O)[C@H](CC(C)C)N(C)C(=O)C2(CCCC2)NC(=O)[C@@H]2C[C@H](OCc3ccc(Cl)cc3)CN2C(=O)[C@H](CCc2ccc(C(F)(F)F)c(F)c2)NC(=O)CN(C)C(=O)[C@H](CC2CCCCC2)N(C)C(=O)CN(C)C(=O)CN(C)C1=O [Compound 2129] ([NMeL]I[Sar][Sar][NMeCha][Sar][hPhe(3-F,4-CF3)][cisHyp](Benzyl(4-Cl))[Ac5c][NMeL][NMeD]-Piperidide; lactam N-11) | > 500
CC[C@H](C)[C@@H]1NC(=O)[C@H](CC(C)C)N(CC)C(=O)C[C@@H](C(=O)N2CCC2)N(C)C(=O)[C@H](C2CCCC2)N(C)C(=O)C2(CCCC2)NC(=O)[C@@H]2CCCN2C(=O)[C@H](CCc2ccc(C(F)(F)F)c(Cl)c2)NC(=O)CN(C)C(=O)[C@H](CC2CCCCC2)N(C)C(=O)[C@@H]2CCN2C(=O)[C@H](C)NC1=O [Compound 1262] ([NEtLeu]IA[Aze][NMeCha][Sar][hPhe(3-Cl-4-CF3)]P[Ac5c][NMeGly(cPent)][NMeD]-{Azetidin(1-yl)}; lactam N-11) | 100 to 500
CC[C@H](C)[C@@H]1NC(=O)[C@H](CC(C)C)N(C)C(=O)C[C@@H](C(=O)N(C)C)N(C)C(=O)[C@H](C2CCCC2)N(C)C(=O)C2(CCCC2)NC(=O)[C@H](CC(=O)N2CCC2)N(C)C(=O)[C@H](CCc2ccc(C(F)(F)F)c(Cl)c2)NC(=O)CN(C)C(=O)[C@H](CC2CCCCC2)N(C)C(=O)[C@@H]2CCN2C(=O)[C@H](C)N(C)C1=O [Compound 2102] ([NMeL]I[NMeA][Aze][NMeCha][Sar][hPhe(3-Cl-4-CF3)][NMeD](Azetidin(1-yl))[Ac5c][NMeGly(cPent)][NMeD]-NMe2; lactam N-11) | 100 to 500
CC[C@H](C)[C@@H]1NC(=O)[C@H](CC(C)C)N(C)C(=O)C[C@@H](C(=O)N(C)C)NC(=O)[C@H](C2CCCC2)N(C)C(=O)C2(CCCC2)NC(=O)[C@@H]2CCCN2C(=O)[C@H](CCc2ccc(C(F)(F)F)c(Cl)c2)NC(=O)CN(C)C(=O)[C@H](CC2CCCCC2)N(C)C(=O)[C@@H]2CCN2C(=O)[C@H](C)N(C)C1=O [Compound 677] ([NMeL]I[NMeA][Aze][NMeCha][Sar][hPhe(3-Cl-4-CF3)]P[Ac5c][NMeGly(cPent)]D-NMe2; lactam N-11) | 50 to 100
CC[C@H](C)[C@@H]1NC(=O)[C@H](CC(C)C)N(C)C(=O)C[C@@H](C(=O)N2CCCCC2)N(C)C(=O)[C@H]([C@@H](C)CC)N(C)C(=O)C2(CCCC2)NC(=O)[C@@H]2CCCN2C(=O)[C@H](CCc2ccc(C(F)(F)F)c(Cl)c2)NC(=O)CN(C)C(=O)[C@H](Cc2ccc(C)cc2)N(C)C(=O)[C@@H]2CCN2C(=O)[C@H](C)N(C)C1=O [Compound 1727] ([NMeL]I[NMeA][Aze][NMePhe(4-Me)][Sar][hPhe(3-Cl-4-CF3)]P[Ac5c][NMeI][NMeD]-Piperidide; lactam N-11) | 20 to 50
CC[C@H](C)[C@@H]1NC(=O)[C@H](CC(C)C)N(C)C(=O)C[C@@H](C(=O)N2CCCCC2)N(C)C(=O)[C@H](C(C)C)N(C)C(=O)C2(CCCC2)NC(=O)[C@@H]2CCCN2C(=O)[C@H](CCc2ccc(C(F)(F)F)c(F)c2)NC(=O)CN(C)C(=O)[C@H](CC2CCCCC2)N(C)C(=O)[C@@H]2CCN2C(=O)[C@H](C)N(C)C1=O [Compound 1040] ([NMeL]I[NMeA][Aze][NMeCha][Sar][hPhe(3-F,4-CF3)]P[Ac5c][NMeV][NMeD]-Piperidide; lactam N-11) | 100 to 500

Source: patent US12371454B2, “Cyclic peptide compound having Kras inhibitory action” (priority 2019, dated 2025)
